According to ChEMBL document CHEMBL3991601, “The target landscape of clinical kinase drugs” (Science, 2017):
The source made the active and inactive calls.

Tests used:
[1] = molecular target: Dual specificity protein kinase CLK3 (Homo sapiens, UniProt P49761); format: subcellular, K-562, COLO 205, SK-N-BE(2) and MV-4-11, Cell lysate; conditions: read-out: Kd apparent
[2] = molecular target: Cell division cycle 7-related protein kinase (Homo sapiens, UniProt O00311)
dCTP pyrophosphatase 1 = molecular target: T1, dCTP pyrophosphatase 1 (Homo sapiens, UniProt Q9H773)
T1 sequence (Q9H773 whole entry): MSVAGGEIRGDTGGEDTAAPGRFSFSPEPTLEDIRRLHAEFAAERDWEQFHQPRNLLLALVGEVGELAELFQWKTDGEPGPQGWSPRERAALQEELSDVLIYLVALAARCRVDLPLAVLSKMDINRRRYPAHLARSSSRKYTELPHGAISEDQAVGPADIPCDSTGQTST

[3] = molecular target: Dual specificity protein kinase CLK2 (Homo sapiens, UniProt P49760)
Sequence of Dual specificity protein kinase CLK2 (P49760 whole entry): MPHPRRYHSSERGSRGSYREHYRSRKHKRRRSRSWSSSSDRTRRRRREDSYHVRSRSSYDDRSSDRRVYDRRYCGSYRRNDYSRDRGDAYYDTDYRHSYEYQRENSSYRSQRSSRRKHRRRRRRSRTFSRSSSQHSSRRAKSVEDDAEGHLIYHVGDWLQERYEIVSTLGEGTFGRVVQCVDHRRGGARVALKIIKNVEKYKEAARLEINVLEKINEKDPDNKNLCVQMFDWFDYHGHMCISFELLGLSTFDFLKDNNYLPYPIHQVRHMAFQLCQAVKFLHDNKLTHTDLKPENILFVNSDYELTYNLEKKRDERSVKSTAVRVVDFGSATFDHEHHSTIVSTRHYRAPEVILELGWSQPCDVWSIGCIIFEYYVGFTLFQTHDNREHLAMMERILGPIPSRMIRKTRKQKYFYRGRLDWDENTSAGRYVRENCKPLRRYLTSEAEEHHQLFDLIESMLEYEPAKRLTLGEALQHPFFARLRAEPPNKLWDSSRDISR

[4] = molecular target: Serine/threonine-protein kinase ATR (Homo sapiens, UniProt Q13535)
Sequence of Serine/threonine-protein kinase ATR (Q13535 whole entry): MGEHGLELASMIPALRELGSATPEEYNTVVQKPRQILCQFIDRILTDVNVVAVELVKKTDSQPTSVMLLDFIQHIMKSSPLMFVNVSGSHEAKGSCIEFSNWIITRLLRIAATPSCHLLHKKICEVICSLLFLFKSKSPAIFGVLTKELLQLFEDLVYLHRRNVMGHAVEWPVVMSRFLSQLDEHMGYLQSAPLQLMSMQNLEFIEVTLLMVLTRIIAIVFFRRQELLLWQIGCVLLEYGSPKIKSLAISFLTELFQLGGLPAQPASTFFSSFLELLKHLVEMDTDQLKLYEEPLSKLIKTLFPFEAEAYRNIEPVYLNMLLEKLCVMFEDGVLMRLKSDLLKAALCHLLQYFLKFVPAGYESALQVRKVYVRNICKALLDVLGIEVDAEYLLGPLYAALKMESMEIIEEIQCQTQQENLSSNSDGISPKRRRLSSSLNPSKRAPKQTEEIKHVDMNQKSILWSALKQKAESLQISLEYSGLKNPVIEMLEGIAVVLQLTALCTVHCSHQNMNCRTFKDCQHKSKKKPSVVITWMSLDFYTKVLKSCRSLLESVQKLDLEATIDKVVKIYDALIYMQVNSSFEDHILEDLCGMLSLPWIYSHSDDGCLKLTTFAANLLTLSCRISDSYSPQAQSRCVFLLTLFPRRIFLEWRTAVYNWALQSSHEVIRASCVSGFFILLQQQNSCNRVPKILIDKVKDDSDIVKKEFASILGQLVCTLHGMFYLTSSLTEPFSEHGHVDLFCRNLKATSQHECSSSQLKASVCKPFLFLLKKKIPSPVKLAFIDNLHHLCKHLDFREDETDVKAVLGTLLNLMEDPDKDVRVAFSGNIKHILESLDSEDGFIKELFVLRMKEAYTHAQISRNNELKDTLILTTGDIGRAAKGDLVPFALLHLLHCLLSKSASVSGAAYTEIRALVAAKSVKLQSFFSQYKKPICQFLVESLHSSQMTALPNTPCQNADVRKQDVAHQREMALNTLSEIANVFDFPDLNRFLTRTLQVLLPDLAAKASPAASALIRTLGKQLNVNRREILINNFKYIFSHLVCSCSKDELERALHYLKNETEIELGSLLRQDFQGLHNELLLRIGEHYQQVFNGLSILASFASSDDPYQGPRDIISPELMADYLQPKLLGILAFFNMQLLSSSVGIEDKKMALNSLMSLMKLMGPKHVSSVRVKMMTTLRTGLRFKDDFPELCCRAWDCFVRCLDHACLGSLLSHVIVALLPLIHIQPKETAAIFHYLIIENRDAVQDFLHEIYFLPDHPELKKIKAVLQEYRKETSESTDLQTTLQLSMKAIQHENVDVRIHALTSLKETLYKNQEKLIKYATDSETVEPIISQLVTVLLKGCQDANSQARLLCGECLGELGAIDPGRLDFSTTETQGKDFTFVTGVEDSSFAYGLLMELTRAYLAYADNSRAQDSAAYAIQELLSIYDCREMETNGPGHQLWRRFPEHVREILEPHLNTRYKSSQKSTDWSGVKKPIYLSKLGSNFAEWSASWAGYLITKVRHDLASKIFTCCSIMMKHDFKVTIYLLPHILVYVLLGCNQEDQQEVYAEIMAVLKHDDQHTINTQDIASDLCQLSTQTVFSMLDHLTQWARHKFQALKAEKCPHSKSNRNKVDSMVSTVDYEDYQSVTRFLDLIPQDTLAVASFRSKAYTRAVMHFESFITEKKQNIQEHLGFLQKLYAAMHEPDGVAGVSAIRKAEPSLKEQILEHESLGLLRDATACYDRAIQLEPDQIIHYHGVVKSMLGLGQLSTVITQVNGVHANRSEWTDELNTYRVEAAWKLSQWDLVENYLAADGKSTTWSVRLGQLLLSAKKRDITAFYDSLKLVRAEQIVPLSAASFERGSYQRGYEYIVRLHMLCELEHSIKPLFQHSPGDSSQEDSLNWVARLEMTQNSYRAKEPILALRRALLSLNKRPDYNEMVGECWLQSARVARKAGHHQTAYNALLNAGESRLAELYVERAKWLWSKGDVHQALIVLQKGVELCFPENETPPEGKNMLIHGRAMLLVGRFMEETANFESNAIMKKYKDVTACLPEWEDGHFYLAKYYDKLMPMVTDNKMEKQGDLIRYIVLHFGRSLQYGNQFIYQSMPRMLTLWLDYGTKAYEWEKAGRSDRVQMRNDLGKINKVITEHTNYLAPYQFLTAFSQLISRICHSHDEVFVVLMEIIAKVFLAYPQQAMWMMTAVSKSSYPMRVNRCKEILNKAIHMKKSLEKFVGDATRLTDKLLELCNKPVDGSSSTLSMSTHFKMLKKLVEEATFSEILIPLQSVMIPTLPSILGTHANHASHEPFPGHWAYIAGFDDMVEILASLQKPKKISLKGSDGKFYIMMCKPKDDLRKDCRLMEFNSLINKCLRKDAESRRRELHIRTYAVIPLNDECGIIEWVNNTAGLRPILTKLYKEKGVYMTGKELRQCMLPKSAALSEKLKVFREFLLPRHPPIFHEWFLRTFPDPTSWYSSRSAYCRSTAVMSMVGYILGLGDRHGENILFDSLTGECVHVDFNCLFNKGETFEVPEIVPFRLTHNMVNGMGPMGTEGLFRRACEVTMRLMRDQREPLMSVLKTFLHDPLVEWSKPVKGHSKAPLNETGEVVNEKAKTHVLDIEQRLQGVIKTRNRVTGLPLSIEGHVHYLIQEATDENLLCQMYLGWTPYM

[5] = molecular target: Serine/threonine-protein kinase PAK 6 (Homo sapiens, UniProt Q9NQU5)
Ephrin type-A receptor 7 = Ephrin type-A receptor 7 (Homo sapiens, UniProt Q15375)
[6] = molecular target: T2, Serine/threonine-protein kinase Nek2 (Homo sapiens, UniProt P51955)
T2 sequence (P51955 whole entry): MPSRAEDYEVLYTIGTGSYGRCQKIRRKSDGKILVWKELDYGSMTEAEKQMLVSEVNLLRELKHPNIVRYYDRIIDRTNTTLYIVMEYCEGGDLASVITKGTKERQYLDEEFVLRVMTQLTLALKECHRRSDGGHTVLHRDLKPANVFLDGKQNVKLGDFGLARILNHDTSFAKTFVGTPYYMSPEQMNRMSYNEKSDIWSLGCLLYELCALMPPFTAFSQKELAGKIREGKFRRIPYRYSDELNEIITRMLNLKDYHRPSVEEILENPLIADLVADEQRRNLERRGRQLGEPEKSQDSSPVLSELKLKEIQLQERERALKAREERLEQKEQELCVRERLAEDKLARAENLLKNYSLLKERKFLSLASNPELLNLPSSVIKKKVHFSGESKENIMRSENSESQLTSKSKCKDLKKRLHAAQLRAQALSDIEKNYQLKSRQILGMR

[7] = molecular target: G protein-coupled receptor kinase 6 (Homo sapiens, UniProt P43250)
Sequence of G protein-coupled receptor kinase 6 (P43250 whole entry): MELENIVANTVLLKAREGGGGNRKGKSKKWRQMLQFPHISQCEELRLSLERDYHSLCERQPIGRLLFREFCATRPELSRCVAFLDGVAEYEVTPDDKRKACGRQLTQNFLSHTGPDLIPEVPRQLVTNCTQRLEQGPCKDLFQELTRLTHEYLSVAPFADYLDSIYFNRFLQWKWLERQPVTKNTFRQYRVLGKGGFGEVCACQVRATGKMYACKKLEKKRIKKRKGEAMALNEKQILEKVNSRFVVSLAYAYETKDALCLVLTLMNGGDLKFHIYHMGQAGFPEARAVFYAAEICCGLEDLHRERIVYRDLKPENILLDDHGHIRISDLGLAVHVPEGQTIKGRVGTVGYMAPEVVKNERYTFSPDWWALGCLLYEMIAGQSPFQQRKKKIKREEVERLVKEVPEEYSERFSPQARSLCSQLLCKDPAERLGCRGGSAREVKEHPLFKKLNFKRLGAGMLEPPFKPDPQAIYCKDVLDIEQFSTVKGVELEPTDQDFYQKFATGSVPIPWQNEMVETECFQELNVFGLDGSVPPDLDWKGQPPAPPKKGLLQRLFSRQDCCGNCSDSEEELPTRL

[8] = molecular target: T3, Eukaryotic translation initiation factor 5B (Homo sapiens, UniProt O60841)
T3 sequence (O60841 whole entry): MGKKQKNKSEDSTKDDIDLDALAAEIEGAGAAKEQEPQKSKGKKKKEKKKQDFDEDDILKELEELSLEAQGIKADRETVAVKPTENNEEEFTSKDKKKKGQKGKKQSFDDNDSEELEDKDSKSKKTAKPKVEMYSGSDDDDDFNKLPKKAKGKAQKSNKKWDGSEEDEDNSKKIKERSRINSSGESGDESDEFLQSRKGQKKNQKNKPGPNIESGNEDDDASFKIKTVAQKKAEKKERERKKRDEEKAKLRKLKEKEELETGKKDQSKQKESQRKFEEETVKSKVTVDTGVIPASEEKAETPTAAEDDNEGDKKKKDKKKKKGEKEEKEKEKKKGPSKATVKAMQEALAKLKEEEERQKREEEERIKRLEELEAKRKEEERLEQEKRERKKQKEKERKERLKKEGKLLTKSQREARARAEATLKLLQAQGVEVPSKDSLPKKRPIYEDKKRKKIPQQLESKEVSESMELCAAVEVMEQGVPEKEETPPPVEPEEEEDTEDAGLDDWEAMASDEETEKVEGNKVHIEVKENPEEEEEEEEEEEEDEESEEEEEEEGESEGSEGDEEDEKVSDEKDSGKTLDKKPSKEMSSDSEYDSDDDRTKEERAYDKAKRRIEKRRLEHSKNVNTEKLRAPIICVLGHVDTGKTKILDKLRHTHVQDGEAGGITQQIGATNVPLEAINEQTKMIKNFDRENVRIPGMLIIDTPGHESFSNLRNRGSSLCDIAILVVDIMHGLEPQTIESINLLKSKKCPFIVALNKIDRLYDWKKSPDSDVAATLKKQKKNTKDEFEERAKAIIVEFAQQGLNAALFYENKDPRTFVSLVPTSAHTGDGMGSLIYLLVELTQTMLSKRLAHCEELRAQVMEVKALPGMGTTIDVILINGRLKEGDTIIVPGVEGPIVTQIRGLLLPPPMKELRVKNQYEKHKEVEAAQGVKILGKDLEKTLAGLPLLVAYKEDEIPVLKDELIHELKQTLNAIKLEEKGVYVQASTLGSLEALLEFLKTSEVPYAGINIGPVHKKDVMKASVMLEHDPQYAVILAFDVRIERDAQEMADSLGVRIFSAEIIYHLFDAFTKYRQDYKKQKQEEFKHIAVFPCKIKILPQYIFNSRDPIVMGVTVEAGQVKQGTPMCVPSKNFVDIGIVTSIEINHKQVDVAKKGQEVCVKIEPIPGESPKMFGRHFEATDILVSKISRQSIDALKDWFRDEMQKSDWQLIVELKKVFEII

[9] = molecular target: Hepatocyte growth factor receptor (Homo sapiens, UniProt P08581)
Activated CDC42 kinase 1 = Activated CDC42 kinase 1 (Homo sapiens, UniProt Q07912)
Aurora kinase A = molecular target: T4, Aurora kinase A (Homo sapiens, UniProt O14965)
T4 sequence (O14965 whole entry): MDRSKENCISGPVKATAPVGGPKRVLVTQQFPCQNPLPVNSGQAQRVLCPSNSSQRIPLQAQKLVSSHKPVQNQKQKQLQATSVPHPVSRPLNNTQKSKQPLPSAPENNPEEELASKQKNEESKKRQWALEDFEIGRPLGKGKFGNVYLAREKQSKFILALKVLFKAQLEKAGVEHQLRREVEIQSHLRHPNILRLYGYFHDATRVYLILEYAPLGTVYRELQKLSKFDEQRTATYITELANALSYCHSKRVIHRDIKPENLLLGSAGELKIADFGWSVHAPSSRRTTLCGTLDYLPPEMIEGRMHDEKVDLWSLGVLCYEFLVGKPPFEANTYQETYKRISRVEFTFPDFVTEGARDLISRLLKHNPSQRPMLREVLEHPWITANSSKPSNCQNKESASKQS

[10] = molecular target: Receptor-interacting serine/threonine-protein kinase 2 (Homo sapiens, UniProt O43353)
[11] = molecular target: Serine/threonine-protein kinase Nek7 (Homo sapiens, UniProt Q8TDX7)
Sequence of Serine/threonine-protein kinase Nek7 (Q8TDX7 whole entry): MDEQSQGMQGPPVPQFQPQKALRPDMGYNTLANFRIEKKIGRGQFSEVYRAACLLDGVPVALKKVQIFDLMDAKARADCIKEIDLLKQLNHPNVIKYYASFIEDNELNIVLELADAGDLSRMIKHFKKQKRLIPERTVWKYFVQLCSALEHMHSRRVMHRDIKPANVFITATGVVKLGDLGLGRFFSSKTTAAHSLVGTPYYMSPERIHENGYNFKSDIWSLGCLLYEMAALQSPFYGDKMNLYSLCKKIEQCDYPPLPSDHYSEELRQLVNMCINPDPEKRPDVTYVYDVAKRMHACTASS
Note: in the data inactive means no Kd found up to 30 µM.

Sequence of Cell division cycle 7-related protein kinase (O00311 whole entry): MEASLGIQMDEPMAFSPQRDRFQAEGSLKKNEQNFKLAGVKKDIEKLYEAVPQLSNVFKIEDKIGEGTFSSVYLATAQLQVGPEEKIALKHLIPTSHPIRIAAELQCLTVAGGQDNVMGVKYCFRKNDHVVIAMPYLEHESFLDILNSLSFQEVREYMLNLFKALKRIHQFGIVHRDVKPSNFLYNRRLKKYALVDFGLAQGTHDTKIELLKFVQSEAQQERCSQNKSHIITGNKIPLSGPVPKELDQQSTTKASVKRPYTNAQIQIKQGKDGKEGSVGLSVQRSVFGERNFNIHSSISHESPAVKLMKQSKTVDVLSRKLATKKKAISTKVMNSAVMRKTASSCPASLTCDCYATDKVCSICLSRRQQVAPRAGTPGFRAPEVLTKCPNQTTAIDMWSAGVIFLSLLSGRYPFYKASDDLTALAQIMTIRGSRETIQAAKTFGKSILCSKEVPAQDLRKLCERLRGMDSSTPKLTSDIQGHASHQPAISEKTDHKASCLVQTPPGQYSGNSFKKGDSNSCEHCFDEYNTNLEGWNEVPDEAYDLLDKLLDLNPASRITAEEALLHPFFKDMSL
Sequence of Dual specificity protein kinase CLK3 (P49761 whole entry): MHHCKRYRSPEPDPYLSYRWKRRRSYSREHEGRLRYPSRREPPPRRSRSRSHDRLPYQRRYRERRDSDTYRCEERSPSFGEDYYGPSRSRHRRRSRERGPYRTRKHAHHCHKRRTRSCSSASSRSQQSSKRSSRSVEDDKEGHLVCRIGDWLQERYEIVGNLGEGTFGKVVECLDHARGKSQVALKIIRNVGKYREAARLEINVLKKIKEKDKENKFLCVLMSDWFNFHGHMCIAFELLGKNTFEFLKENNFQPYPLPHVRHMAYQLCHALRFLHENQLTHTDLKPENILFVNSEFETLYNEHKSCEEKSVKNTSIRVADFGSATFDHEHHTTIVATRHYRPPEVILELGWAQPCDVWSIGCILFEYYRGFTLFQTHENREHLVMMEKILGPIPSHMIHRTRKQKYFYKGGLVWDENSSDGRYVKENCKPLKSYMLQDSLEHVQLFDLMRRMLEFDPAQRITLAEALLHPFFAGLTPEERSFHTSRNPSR

Structure (SMILES)	Kd [1]	Kd [2]	Kd (dCTP pyrophosphatase 1)	Kd [3]	Kd [4]	Kd [5]	Kd (Ephrin type-A receptor 7)	Kd [6]	Kd [7]	Kd [8]	Kd [9]	Kd (Activated CDC42 kinase 1)	Kd (Aurora kinase A)	Kd [10]	Kd [11]
CN1CCN(c2nc(C3=C(c4c[nH]c5ccccc45)C(=O)NC3=O)c3ccccc3n2)CC1 [SOTRASTAURIN]	> 30 µM (inactive)	> 30 µM (inactive)	> 30 µM (inactive)	0.121 µM	> 30 µM (inactive)	> 30 µM (inactive)	> 30 µM (inactive)	> 30 µM (inactive)	> 30 µM (inactive)	> 30 µM (inactive)	> 30 µM (inactive)	> 30 µM (inactive)	> 30 µM (inactive)	> 30 µM (inactive)	
COCCN1CCN(Cc2ccc(-c3n[nH]c4c3C(=O)c3c(NC(=O)NN5CCOCC5)cccc3-4)cc2)CC1 [RGB-286638]	> 30 µM (inactive)	> 30 µM (inactive)	> 30 µM (inactive)	0.018 µM (active)	> 30 µM (inactive)	> 30 µM (inactive)	> 30 µM (inactive)	> 30 µM (inactive)		> 30 µM (inactive)	> 30 µM (inactive)	> 30 µM (inactive)	> 30 µM (inactive)	> 30 µM (inactive)	
CCc1cc2c(cc1N1CCC(N3CCOCC3)CC1)C(C)(C)c1[nH]c3cc(C#N)ccc3c1C2=O [ALECTINIB]	1.4 µM (active)	> 30 µM (inactive)	> 30 µM (inactive)	2.32 µM (active)	> 30 µM (inactive)	> 30 µM (inactive)	> 30 µM (inactive)	> 30 µM (inactive)	> 30 µM (inactive)	> 30 µM (inactive)	> 30 µM (inactive)	> 30 µM (inactive)	> 30 µM (inactive)	> 30 µM (inactive)	
CNC(=O)c1cccc(-c2ccc3c(N4CCOC[C@@H]4C)nc(N4CCOC[C@@H]4C)nc3n2)c1 [VISTUSERTIB]	> 30 µM (inactive)	> 30 µM (inactive)	> 30 µM (inactive)	> 30 µM (inactive)	> 30 µM (inactive)	> 30 µM (inactive)	> 30 µM (inactive)	> 30 µM (inactive)	> 30 µM (inactive)	> 30 µM (inactive)	> 30 µM (inactive)	> 30 µM (inactive)	> 30 µM (inactive)	> 30 µM (inactive)	
O=S(=O)(c1cccc2cnccc12)N1CCCNCC1 [FASUDIL]	> 30 µM (inactive)	> 30 µM (inactive)	> 30 µM (inactive)				> 30 µM (inactive)		> 30 µM (inactive)	> 30 µM (inactive)			> 30 µM (inactive)	> 30 µM (inactive)	> 30 µM (inactive)
C=CC(=O)Nc1cc(Nc2nccc(-c3cn(C)c4ccccc34)n2)c(OC)cc1N(C)CCN(C)C [OSIMERTINIB]	> 30 µM (inactive)		> 30 µM (inactive)	> 30 µM (inactive)			> 30 µM (inactive)	> 30 µM (inactive)	> 30 µM (inactive)	> 30 µM (inactive)		> 30 µM (inactive)	> 30 µM (inactive)	> 30 µM (inactive)	> 30 µM (inactive)
COc1cc2ncnc(Nc3ccc(F)c(Cl)c3)c2cc1NC(=O)/C=C/CN1CCCCC1 [DACOMITINIB ANHYDROUS]	> 30 µM (inactive)	> 30 µM (inactive)	> 30 µM (inactive)	> 30 µM (inactive)			> 30 µM (inactive)	> 30 µM (inactive)	> 30 µM (inactive)	> 30 µM (inactive)	> 30 µM (inactive)	> 30 µM (inactive)	> 30 µM (inactive)	0.988 µM (active)	> 30 µM (inactive)

Continued, values first:

Kd [1]	Kd [2]	Kd (dCTP pyrophosphatase 1)	Kd [3]	Kd [4]	Kd [5]	Kd (Ephrin type-A receptor 7)	Kd [6]	Kd [7]	Kd [8]	Kd [9]	Kd (Activated CDC42 kinase 1)	Kd (Aurora kinase A)	Kd [10]	Kd [11]	Structure (SMILES)
> 30 µM (inactive)	> 30 µM (inactive)	> 30 µM (inactive)		> 30 µM (inactive)		> 30 µM (inactive)	> 30 µM (inactive)			> 30 µM (inactive)	> 30 µM (inactive)	0.3 µM (active)	> 30 µM (inactive)	> 30 µM (inactive)	COc1cc(Nc2ncc(F)c(Nc3ccc4c(n3)N(COP(=O)(O)O)C(=O)C(C)(C)O4)n2)cc(OC)c1OC [FOSTAMATINIB]
> 30 µM (inactive)	> 30 µM (inactive)	> 30 µM (inactive)	> 30 µM (inactive)	> 30 µM (inactive)	> 30 µM (inactive)	> 30 µM (inactive)	> 30 µM (inactive)	> 30 µM (inactive)	> 30 µM (inactive)		> 30 µM (inactive)	> 30 µM (inactive)	> 30 µM (inactive)		Cc1ccc(C(=O)Nc2ccc(Oc3cc4cnn(C)c4cc3-c3cn[nH]c3)c(F)c2)c(=O)n1-c1ccc(F)cc1 [MERESTINIB]
> 30 µM (inactive)	> 30 µM (inactive)	> 30 µM (inactive)	> 30 µM (inactive)	> 30 µM (inactive)	> 30 µM (inactive)	> 30 µM (inactive)	> 30 µM (inactive)	> 30 µM (inactive)	> 30 µM (inactive)	> 30 µM (inactive)	> 30 µM (inactive)	> 30 µM (inactive)	> 30 µM (inactive)		O=C(Nc1ccc(OC(F)(F)F)cc1)c1sccc1NCc1ccnc2ccccc12 [OSI-930]
0.01 µM (active)		> 30 µM (inactive)		> 30 µM (inactive)		> 30 µM (inactive)	> 30 µM (inactive)			> 30 µM (inactive)	> 30 µM (inactive)	> 30 µM (inactive)	> 30 µM (inactive)	> 30 µM (inactive)	O=C(O)c1ccc2c(c1)nc(Nc1cccc(Cl)c1)c1ccncc12 [SILMITASERTIB]
